The record followed here is ChEMBL document CHEMBL5505980, “Pyrazolamide derivatives inhibit α-Synuclein aggregation, disaggregate preformed fibers, and reduce inclusion formation in neuron cells” (Eur J Med Chem, 2024).

pIC50: −log10 of the molar value.

The nature of data set [1]: Apparent permeability across apical to basolateral side in MDCKII-MDR1 cells at 10 uM by LC-MS/MS analysis. The conditions noted are these: dog, MDCK-MDR1. In kind it is ADME, cell-based, Canis lupus familiaris.
Data set [2] is described as follows: Apparent permeability across basolateral side to apical in MDCKII-MDR1 cells at 10 uM by LC-MS/MS analysis. In kind it is ADME, cell-based, Canis lupus familiaris. The conditions noted are these: dog, MDCK-MDR1.
The test system of data set [3] is H4. The experiment in a line: Cytotoxicity against human H4 cells assessed as cell viability at 1 to 1000 uM incubated for 24 hrs by CCK-8 assay. In kind it is toxicity, cell-based. The conditions noted are these: h4, 24 h, dose 1-1000 µM. Background: Tetrazolium assays rely on reduction of a dye to a coloured formazan, in cell work by metabolically active cells.

Data set [4] is described as follows: Cytotoxicity against human H4 cells assessed as cell viability at 30 uM incubated for 24 hrs by CCK-8 assay relative to control. The conditions noted are these: read-out: Activity. In kind it is toxicity, cell-based.
Data set [5] has as its system H4. The experiment in a line: Cytotoxicity against human H4 cells assessed as cell viability at 300 uM incubated for 24 hrs by CCK-8 assay relative to control. In kind it is toxicity, cell-based. The conditions noted are these: h4, 24 h.
The target of a further data set is Alpha-synuclein (Homo sapiens, UniProt P37840). The experiment in a line: Inhibition of alpha-synuclein (unknown origin) aggregation inhibition ratio by measuring relative fluorescence intensity measured after 3 days by ThT F1 based assay relative to control.

One may read the Papp A→B as the apparent permeability from the apical to the basolateral side of a cell layer. The Papp B→A is how fast a substance crosses the layer from the basolateral side. As to `Cc1ccc(-c2cc(C(=O)Nc3cc(O)ccc3O)[nH]n2)cc1`, in data set [1], the Papp A→B at 10 µM was 22.6 nm/s. Moreover, the Papp B→A at 10 µM in data set [2] is 66.5 nm/s. In addition, the Activity result in the data set with H4 [3] is listed as “Non-Toxic”. Further, in data set [4], the viability at 24 h, 30 µM is 74%.
Take `O=C(Nc1ccc(O)c(O)c1)c1cc(-c2ccc(C(F)(F)F)cc2)n[nH]1`: the Papp A→B at 10 µM in data set [1] was found to be 42 nm/s. Moreover, the Papp B→A at 10 µM in data set [2] was found to be 18.6 nm/s. Further, the Activity entry in the data set on H4 [3] is given as “Non-Toxic”. In addition, the viability at 24 h, 30 µM in data set [4] was found to be 95%.
In the case of `O=C(Nc1cc(O)ccc1O)c1cc(-c2ccc(Br)cc2)n[nH]1`, the Papp A→B at 10 µM in data set [1] was found to be 296 nm/s. Besides, in data set [2], the Papp B→A at 10 µM was 120 nm/s. In addition, the Activity entry in the data set with H4 [3] and with H4 [5] was “Non-Toxic” each time. In addition, the viability at 24 h, 30 µM in data set [4] came out at 95%.
Take `O=C(Nc1cc(O)ccc1O)c1cc(-c2ccc(C(F)(F)F)cc2)n[nH]1`: the Papp A→B at 10 µM in data set [1] worked out at 497 nm/s. The Papp B→A at 10 µM in data set [2] amounted to 193 nm/s. Besides, the Activity result in the data set with H4 [3] is “Non-Toxic”. For the same compound, the viability at 24 h, 30 µM in data set [4] came out at 95%.
A word on the pIC50: it is the IC50 on a negative log10 scale, so that one unit is a factor of ten. Regarding `O=C(O[C@@H]1Cc2c(O)cc(O)cc2O[C@@H]1c1cc(O)c(O)c(O)c1)c1cc(O)c(O)c(O)c1` [EPIGALOCATECHIN GALLATE], the pIC50 at Alpha-synuclein was 5.59. Moreover, the Activity result in the data set with H4 [3] was “Non-Toxic”.
